Measurements reported in patent US9822114B2, “Tricyclic oxazolidinone antibiotic compounds” (Idorsia Pharmaceuticals Ltd, priority 2008, dated 2017).
Converted amounts (≈) assume the structure as drawn.

Tested on: M. catarrhalis A894
Test: Minimal inhibitory concentration (MIC), microdilution method in cation-adjusted Mueller-Hinton Broth (CLSI M7-A7)
Format: cell-based
Conditions: Moraxella catarrhalis, strain A894
Method: Minimal inhibitory concentrations (MICs; mg/1) were determined in cation-adjusted Mueller-Hinton Broth by a microdilution method following the description given in “Methods for Dilution Antimicrobial Susceptibility Tests for Bacteria that Grow Aerobically”, Approved standard, 7th ed., Clinical and Laboratory Standards Institute (CLSI) Document M7-A7, Wayne, Pa., USA, 2006.

Structure (SMILES)	MIC
O=C1CSc2ccc(N3C[C@H](CCNC[C@H]4Cn5c(=O)ccc6nccc4c65)OC3=O)cc2N1 [Example 77, (S)-4-({2-[(S)-2-oxo-3-(3-oxo-3,4-dihydro-2H-benzo[1,4]thiazin-6-yl)-oxazolidin-5-yl]-ethylamino}-methyl)-4,5-dihydro-pyrrolo[3,2,1-de][1,5]naphthyridin-7-one]	0.031 µg/mL (≈ 0.0649 µM)
O=C1CSc2ccc(N3C[C@H](CCNC[C@@H]4Cn5c(=O)ccc6nccc4c65)OC3=O)cc2N1 [Example 78, (R)-4-({2-[(S)-2-oxo-3-(3-oxo-3,4-dihydro-2H-benzo[1,4]thiazin-6-yl)-oxazolidin-5-yl]-ethylamino}-methyl)-4,5-dihydro-pyrrolo[3,2,1-de][1,5]naphthyridin-7-one]	≤ 0.031 µg/mL
O=C1CSc2ccc(N3C[C@H](CCCN[C@@H]4Cn5c(=O)cnc6ccc(F)c4c65)OC3=O)cc2N1 [Example 79, (S)-7-fluoro-6-{3-[(S)-2-oxo-3-(3-oxo-3,4-dihydro-2H-benzo[1,4]thiazin-6-yl)-oxazolidin-5-yl]-propylamino}-5,6-dihydro-pyrrolo[1,2,3-de]quinoxalin-3-one]	≤ 0.031 µg/mL
O=C1COc2ccc(N3C[C@H](CCCN[C@@H]4Cn5c(=O)cnc6ccc(F)c4c65)OC3=O)cc2N1 [Example 80, (S)-7-fluoro-6-{3-[(S)-2-oxo-3-(3-oxo-3,4-dihydro-2H-benzo[1,4]oxazin-6-yl)-oxazolidin-5-yl]-propylamino}-5,6-dihydro-pyrrolo[1,2,3-de]quinoxalin-3-one]	≤ 0.031 µg/mL
O=C1CSc2ccc(N3C[C@H](CCCN[C@@H]4Cn5c(=O)ccc6cccc4c65)OC3=O)cc2N1 [Example 85, (S)-1-{3-[(S)-2-oxo-3-(3-oxo-3,4-dihydro-2H-benzo[1,4]thiazin-6-yl)-oxazolidin-5-yl]-propylamino}-1,2-dihydro-pyrrolo[3,2,1-ij]quinolin-4-one]	≤ 0.031 µg/mL
O=C1COc2ccc(N3C[C@H](CCCN[C@@H]4Cn5c(=O)ccc6cccc4c65)OC3=O)cc2N1 [Example 86, (S)-1-{3-[(S)-2-oxo-3-(3-oxo-3,4-dihydro-2H-benzo[1,4]oxazin-6-yl)-oxazolidin-5-yl]-propylamino}-1,2-dihydro-pyrrolo[3,2,1-ij]quinolin-4-one]	≤ 0.031 µg/mL
O=C1CSc2ccc(N3C[C@@H](CCN[C@@H]4Cn5c(=O)ccc6cccc4c65)OC3=O)cc2N1 [Example 87, (S)-1-{2-[(R)-2-oxo-3-(3-oxo-3,4-dihydro-2H-benzo[1,4]thiazin-6-yl)-oxazolidin-5-yl]-ethylamino}-1,2-dihydro-pyrrolo[3,2,1-ij]quinolin-4-one]	≤ 0.031 µg/mL
O=C1CSc2ccc(N3C[C@H](CCN[C@@H]4Cn5c(=O)ccc6cccc4c65)OC3=O)cc2N1 [Example 88, (S)-1-{2-[(S)-2-oxo-3-(3-oxo-3,4-dihydro-2H-benzo[1,4]thiazin-6-yl)-oxazolidin-5-yl]-ethylamino}-1,2-dihydro-pyrrolo[3,2,1-ij]quinolin-4-one]	≤ 0.031 µg/mL
O=C1COc2ccc(N3C[C@H](CCN[C@@H]4Cn5c(=O)ccc6cccc4c65)OC3=O)cc2N1 [Example 89, (S)-1-{2-[(S)-2-oxo-3-(3-oxo-3,4-dihydro-2H-benzo[1,4]oxazin-6-yl)-oxazolidin-5-yl]-ethylamino}-1,2-dihydro-pyrrolo[3,2,1-ij]quinolin-4-one]	0.063 µg/mL (≈ 0.141 µM)
O=C1COc2ccc(N3C[C@@H](CCCN[C@H]4Cn5c(=O)cnc6ccc(F)c4c65)OC3=O)cc2N1 [Example 104, (R)-7-fluoro-6-{3-[(R)-2-oxo-3-(3-oxo-3,4-dihydro-2H-benzo[1,4]oxazin-6-yl)-oxazolidin-5-yl]-propylamino}-5,6-dihydro-pyrrolo[1,2,3-de]quinoxalin-3-one]	≤ 0.031 µg/mL
O=C1CSc2ccc(N3C[C@@H](CCCN[C@H]4Cn5c(=O)cnc6ccc(F)c4c65)OC3=O)cc2N1 [Example 105, (R)-7-fluoro-6-{3-[(R)-2-oxo-3-(3-oxo-3,4-dihydro-2H-benzo[1,4]thiazin-6-yl)-oxazolidin-5-yl]-propylamino}-5,6-dihydro-pyrrolo[1,2,3-de]quinoxalin-3-one]	≤ 0.031 µg/mL
O=C1CSc2ccc(N3C[C@@H](CCCN[C@H]4Cn5c(=O)ccc6cccc4c65)OC3=O)cc2N1 [Example 109, (R)-1-{3-[(R)-2-oxo-3-(3-oxo-3,4-dihydro-2H-benzo[1,4]thiazin-6-yl)-oxazolidin-5-yl]-propylamino}-1,2-dihydro-pyrrolo[3,2,1-ij]quinolin-4-one]	≤ 0.031 µg/mL
COc1nc2ccc(F)c3c2n(c1=O)C[C@@H]3NCCC[C@@H]1CN(c2ccc3c(c2)NC(=O)CO3)C(=O)O1 [Example 111, (R)-7-fluoro-2-methoxy-6-{3-[(R)-2-oxo-3-(3-oxo-3,4-dihydro-2H-benzo[1,4]oxazin-6-yl)-oxazolidin-5-yl]-propylamino}-5,6-dihydro-pyrrolo[1,2,3-de]quinoxalin-3-one]	0.125 µg/mL (≈ 0.245 µM)
COc1nc2ccc(F)c3c2n(c1=O)C[C@@H]3NCCC[C@@H]1CN(c2ccc3c(c2)NC(=O)CS3)C(=O)O1 [Example 112, (R)-7-fluoro-2-methoxy-6-{3-[(R)-2-oxo-3-(3-oxo-3,4-dihydro-2H-benzo[1,4]thiazin-6-yl)-oxazolidin-5-yl]-propylamino}-5,6-dihydro-pyrrolo[1,2,3-de]quinoxalin-3-one]	≤ 0.031 µg/mL
O=C1CSc2ccc(N3C[C@@H](CCCN[C@@H]4CN5C(=O)CNc6cccc4c65)OC3=O)cc2N1 [Example 114, (S)-6-{3-[(R)-2-oxo-3-(3-oxo-3,4-dihydro-2H-benzo[1,4]thiazin-6-yl)-oxazolidin-5-yl]-propylamino}-1,2,5,6-tetrahydro-pyrrolo[1,2,3-de]quinoxalin-3-one]	≤ 0.031 µg/mL
CCOC(=O)c1ccc2c3c1ccc(=O)n3C[C@@H]2NCCC[C@H]1CN(c2ccc3c(c2)NC(=O)CS3)C(=O)O1 [Example 119, (R)-4-oxo-1-{3-[(S)-2-oxo-3-(3-oxo-3,4-dihydro-2H-benzo[1,4]thiazin-6-yl)-oxazolidin-5-yl]-propylamino}-1,2-dihydro-4H-pyrrolo[3,2,1-ij]quinoline-7-carboxylic acid ethyl ester]	≤ 0.031 µg/mL
O=C1CSc2ccc(N3C[C@H](CCCN[C@H]4Cn5c(=O)ccc6c(CO)ccc4c65)OC3=O)cc2N1 [Example 120, (R)-7-hydroxymethyl-1-{3-[(S)-2-oxo-3-(3-oxo-3,4-dihydro-2H-benzo[1,4]thiazin-6-yl)-oxazolidin-5-yl]-propylamino}-1,2-dihydro-pyrrolo[3,2,1-ij]quinolin-4-one]	0.125 µg/mL (≈ 0.247 µM)
Cl.O=C1CSc2ccc(N3C[C@H](CCCN[C@H]4Cn5c(=O)ccc6c(C(=O)O)ccc4c65)OC3=O)cc2N1 [Example 121, (R)-4-oxo-1-{3-[(S)-2-oxo-3-(3-oxo-3,4-dihydro-2H-benzo[1,4]thiazin-6-yl)-oxazolidin-5-yl]-propylamino}-1,2-dihydro-4H-pyrrolo[3,2,1-ij]quinoline-7-carboxylic acid hydrochloride]	0.125 µg/mL
CN(C)Cc1ccc2c3c1ccc(=O)n3C[C@@H]2NCCC[C@H]1CN(c2ccc3c(c2)NC(=O)CS3)C(=O)O1 [Example 122, (R)-7-dimethylaminomethyl-1-{3-[(S)-2-oxo-3-(3-oxo-3,4-dihydro-2H-benzo[1,4]thiazin-6-yl)-oxazolidin-5-yl]-propylamino}-1,2-dihydro-pyrrolo[3,2,1-ij]quinolin-4-one]	0.5 µg/mL (≈ 0.937 µM)
O=C1CSc2ccc(N3C[C@H](CCCN[C@H]4Cn5c(=O)ccc6c(CN7CCCC7)ccc4c65)OC3=O)cc2N1 [Example 123, (R)-1-{3-[(S)-2-oxo-3-(3-oxo-3,4-dihydro-2H-benzo[1,4]thiazin-6-yl)-oxazolidin-5-yl]-propylamino}-7-pyrrolidin-1-ylmethyl-1,2-dihydro-pyrrolo[3,2,1-ij]quinolin-4-one]	0.125 µg/mL (≈ 0.223 µM)
O=C1CSc2ccc(N3C[C@@H](CCCN[C@H]4Cn5c(=O)ccc6ccc(F)c4c65)OC3=O)cc2N1 [Example 127, (R)-9-fluoro-1-{3-[(R)-2-oxo-3-(3-oxo-3,4-dihydro-2H-benzo[1,4]thiazin-6-yl)-oxazolidin-5-yl]-propylamino}-1,2-dihydro-pyrrolo[3,2,1-ij]quinolin-4-one]	≤ 0.031 µg/mL
O=C1CSc2ccc(N3C[C@@H](CCCN[C@@H]4Cn5c(=O)ccc6ccc(F)c4c65)OC3=O)cc2N1 [Example 128, (S)-9-fluoro-1-{3-[(R)-2-oxo-3-(3-oxo-3,4-dihydro-2H-benzo[1,4]thiazin-6-yl)-oxazolidin-5-yl]-propylamino}-1,2-dihydro-pyrrolo[3,2,1-ij]quinolin-4-one]	≤ 0.031 µg/mL
O=C1CSc2ccc(N3C[C@H](CCCN[C@H]4Cn5c(=O)ccc6ccc(F)c4c65)OC3=O)cc2N1 [Example 129, (R)-9-fluoro-1-{3-[(S)-2-oxo-3-(3-oxo-3,4-dihydro-2H-benzo[1,4]thiazin-6-yl)-oxazolidin-5-yl]-propylamino}-1,2-dihydro-pyrrolo[3,2,1-ij]quinolin-4-one]	≤ 0.031 µg/mL
O=C1CSc2ccc(N3C[C@H](CCCN[C@@H]4Cn5c(=O)ccc6ccc(F)c4c65)OC3=O)cc2N1 [Example 130, (S)-9-fluoro-1-{3-[(S)-2-oxo-3-(3-oxo-3,4-dihydro-2H-benzo[1,4]thiazin-6-yl)-oxazolidin-5-yl]-propylamino}-1,2-dihydro-pyrrolo[3,2,1-ij]quinolin-4-one]	≤ 0.031 µg/mL
O=C1COc2ccc(N3C[C@H](CCCN[C@H]4Cn5c(=O)cnc6ccc(F)c4c65)OC3=O)nc2N1 [Example 131, (R)-7-fluoro-6-{3-[(S)-2-oxo-3-(3-oxo-3,4-dihydro-2H-pyrido[3,2-b][1,4]oxazin-6-yl)-oxazolidin-5-yl]-propylamino}-5,6-dihydro-pyrrolo[1,2,3-de]quinoxalin-3-one]	≤ 0.031 µg/mL
O=C1CSc2ccc(N3C[C@@H](CCCN[C@H]4Cn5c(=O)cnc6ccc(F)c4c65)OC3=O)nc2N1 [Example 132, (R)-7-fluoro-6-{3-[(R)-2-oxo-3-(3-oxo-3,4-dihydro-2H-pyrido[3,2-b][1,4]thiazin-6-yl)-oxazolidin-5-yl]-propylamino}-5,6-dihydro-pyrrolo[1,2,3-de]quinoxalin-3-one]	≤ 0.031 µg/mL
